Results published in publication PMC3324652 (2012).

Biological target: cannabinoid receptor type 2 (CB2) (Homo sapiens, UniProt P34972)
Experiment: radioligand saturation binding

cannabinoid receptor type 2 (CB2), sequence (P34972 whole entry): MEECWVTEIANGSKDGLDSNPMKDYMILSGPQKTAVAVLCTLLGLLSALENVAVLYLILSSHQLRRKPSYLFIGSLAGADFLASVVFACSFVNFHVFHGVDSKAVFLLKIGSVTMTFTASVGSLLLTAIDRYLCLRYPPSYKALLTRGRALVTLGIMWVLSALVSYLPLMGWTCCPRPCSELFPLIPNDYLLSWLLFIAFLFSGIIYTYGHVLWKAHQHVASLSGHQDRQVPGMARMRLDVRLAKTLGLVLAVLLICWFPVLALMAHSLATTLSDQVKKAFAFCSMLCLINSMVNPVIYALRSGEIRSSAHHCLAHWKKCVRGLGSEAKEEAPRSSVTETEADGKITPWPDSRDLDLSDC

CCCCOc1c(OC)ccc2cc(C(=O)NCc3ccc(F)cc3)c(=O)[nH]c12 [[18F]-14, 7-methoxy-8-butoxy-2-oxo-1,2-dihydroquinoline-3-carboxylic acid-(4-fluorobenzyl)amide]
Kd: 3.4 nM
